# From patent US11324737B1, “Modulating expression level of a gene encoding a heat shock protein by treating a human subject with a nitroxide” (priority 2021, dated 2022)
# Experiments:
# [1] = test system: HSP90; assay: Treating a human subject with Tempol, serum level of HSP90 following treatment; type: in vivo; conditions: 2000 mg per day for 180 days
# Description: (§1) A 70-kilogram human subject over the age of 65 is identified as having, or known to have, or suspected of having an increased expression level of HSP90. The human subject is administered a dose of 2000 mg of Tempol (or another nitroxide antioxidant) per day for 180 days. This may be administered in a single dose, or may be administered as a number of smaller doses over a 24-hour period: for example, four 500-mg doses at […]. Following treatment, the serum level of HSP90, is decreased.
# as §1, with “subject” for “subject over the age of 65”
# as §1, with “65 and having a cardiovascular disease” for “65”, “for an increased expression level of HSP90. Or a 70-kilogram human subject over the age of 65 is” for “as having, or”, “have a cardiovascular disease and/or” for “have, or suspected of having an”
# as §1, with “at risk” for “over the age”, “developing colorectal cancer” for “65”, “for increased expression level of HSP90. Or a 70-kilogram human subject is” for “as having, or”, “be at risk” for “have, or suspected”, “developing colorectal cancer and/or have” for “having an”, “decreased. […]” for “decreased.”
# A 70-kilogram human subject having an infection (e.g., a bacterial, fungal, or viral infection) is identified for increased expression level of HSP90. Or a 70-kilogram human subject is known to have an infection and/or have increased expression level of HSP90. The human subject is administered a dose of 2000 mg of Tempol (or another nitroxide antioxidant) per day for 180 days. This may be administered in a single dose, or may be administered as a number of smaller doses over a 24-hour period: for example, four 500-mg doses at […]. Following treatment, the serum level of HSP90, is decreased.
# [2] = test system: HSP90; assay: Effects of Tempol on gene expression in cardiac tissue of mice, chip-based microarray; type: in vivo
# Description: To assess the effects of Tempol on gene expression, Tempol was administered to experimental mice at a dose of 5 mg/g of food from 14 months to 31 months after birth. Mice receiving the same food without the addition of Tempol were used as a negative control. At the age of 31 months, the experimental animals were sacrificed and the hearts were surgically removed. The expression of a broad spectrum of genes in the cardiac tissue was assessed using chip-based microarray technology. Such chips are well known in the art and are widely used to assess gene expression.
smiles,measurement,setting,value
"CC1(C)CC(O)CC(C)(C)N1[O] [Tempol, 4-hydroxy-2,2,6,6-tetramethylpiperidine-1-oxyl]",serum level of HSP90 following treatment,[1]; Example 2: 70-kilogram human subject over the age of 65 with increased expression level of HSP90,decreased
same,serum level of HSP90 following treatment,[1]; Example 3: 70-kilogram human subject with increased expression level of HSP90,decreased
same,serum level of HSP90 following treatment,[1]; Example 4: 70-kilogram human subject over the age of 65 having a cardiovascular disease,decreased
same,serum level of HSP90 following treatment,[1]; Example 5: 70-kilogram human subject at risk of developing colorectal cancer,decreased
same,serum level of HSP90 following treatment,"[1]; Example 6: 70-kilogram human subject at risk of developing an autoimmune disease (e.g., rheumatoid arthritis)",decreased
same,serum level of HSP90 following treatment,[1]; Example 7: 70-kilogram human subject at risk of developing a condition due to aging,decreased
same,serum level of HSP90 following treatment,"[1]; Example 8: 70-kilogram human subject at risk of developing a neurodegenerative disease (e.g., Parkinson's Disease)",decreased
same,serum level of HSP90 following treatment,"[1]; Example 9: 70-kilogram human subject having an infection (bacterial, fungal, or viral)",decreased
same,Fold change (expression of HSP90 in cardiac tissue after Tempol administration),"[2]; Tempol 5 mg/g of food from 14 months to 31 months after birth, vs same food without Tempol, cardiac tissue at 31 months",−2.4
same,HSP90 expression in cardiac tissue,"[2]; Tempol 5 mg/g of food from 14 to 31 months after birth, cardiac tissue, result in words",statistically significant decrease in expression
